In US20040157930A1, “Histone deacetylase enzyme-inhibiting derivatives of hydroxamic acid as new cytokine synthesis-inhibiting anti-inflammatory drugs” (priority 2001, published 2004):

Columns and labels:
IFNγ = IFNγ synthesis by PBMCs stimulated with IL-12 and IL-18 (ELISA); assay type: cell-based; settings: Homo sapiens; PBMC, IL-12 10 ng/ml + IL-18 20 ng/ml, 48 h; read-out: IFNγ (from IL-12 + IL-18) IC50
Protocol: Cytokine IFNγ is produced by the T lymphocytes following their stimulation by pro-inflammatory cytokines, especially IL-12 and IL-18 (Dinarello C. A. and Moldawer L. L. Proinflammatory and anti-inflammatory cytokines in rheumatoid arthritis. A primer for clinicians. 2nd Edition, Amgen Inc., 2000).
At the end, the cells were stimulated for 48 hours in the presence of the compound by simultaneous addition of recombinant IL-12 (10 ng/ml) and recombinant IL-18 (20 ng/ml). The quantity of IFNγ produced was determined with a commercial ELISA assay.

[1] = tested on: Con A-induced liver injury; experiment: Con A-induced liver injury, serum ALT; assay type: in vivo, C57B16 mice; settings: single dose 50 mg/kg i.p. 1 h before Con A i.v.; vehicle 15.190±2.580
Protocol: After 24 h, serum amino-alanine transferase was measured. Intravenous injection of Con A results in hepatic cell death within 12-24 h with markedly elevated serum levels of hepatic enzymes such as alanine amino transaminase (ALT).

[2] = tested on: mouse peritoneal macrophages; experiment: Nitric oxide production from mouse peritoneal macrophages (Griess); assay type: cell-based, C57BLy6 mice; settings: TNF-α plus IFN-γ stimulation, 24 h
Protocol: C57BLy6 mice were injected i.p. with 1 ml of sterile thioglycolate broth and killed after 5 days, and macrophages were isolated using instillation of 10 ml of ice-cold PBS into the peritoneal cavity. The cells were centrifuged (350×g) and 3 ml of erythrocyte lysing reagent (PharMingen) was added for 10 min.
Seven milliliters of DMEM containing 5% FCS was added and the cells were centrifuged at 4° C. The cells were resuspended in DMEM at 1 million per ml and 0.5 ml were added to wells of a 48-well plate. […] After 24 h, NO levels in the supernatant were determined using the Griess reagent as described in Am.J.Physiol.Cell Physiol. (2001), 280, C441-C450.

IL-12 (p70) = experiment: Inhibition of IL-12 production by cultured monocytes (ELISA); assay type: cell-based; settings: nonadherent human monocytes
Protocol: Venous blood was obtained from consenting adults and separated over Ficoll-Hypaque. The PBMC fraction was washed and adjusted to five million cells per ml. […] The cells were stimulated with LPS, soluble OKT3, or cytokines, and after 24 or 48 h At 37° C. the supernatant was removed and frozen for cytokine assays. Monocytes were isolated by centrifugation over Percoll, washed, suspended in RPMI with 10% FCS, and aliquoted at 2 million cells per ml in Petriperm Teflon-coated culture dishes (Sigma). The ELISA for human IL-12 (p70) was purchased from Endogen (Woburn, Mass.).

For O=C(CCCCCCC(=O)Nc1ccccc1)NO [SAHA, suberoylanilide hydroxamic acid], the IC50 (IFNγ) was 740 nM, the “24-h level of serum ALT (mean±SE)” value [1] was 8.144±2.091 units/liter and the “reduction of NO production” value ([2]; 200 nM) was 50%. For the same molecule, the “reduction of NO production” value ([2]; 400 nM) was 80%, the “reduction of NO production” value ([2]; 800 nM) was 85% and the “reduction in LPS/IFN-γ-induced IL-12 production” value (IL-12 (p70); 200 nM) was 55%. The “reduction in LPS/IFN-γ-induced IL-12 production” value (IL-12 (p70); 400 nM) was 86%.
